These are literature values, as cited in US9278365B2, “Volatile material dispenser and method of emitting a volatile material” (priority 2014, dated 2016).

On to `OC/C=C/c1ccccc1` [cinnamic alcohol], for which the “log P (octanol/water partition coefficient)” value was 2 Log P. As for `COC(=O)c1ccccc1` [methyl benzoate], the solubility is on record as 2.1 Log P. Consider methy cyclopetenone, for which the “log P (octanol/water partition coefficient)” value is recorded as 1.29 Log P.

As for `CC(=O)O[C@@H]1C[C@H]2CC[C@]1(C)C2(C)C` (racemic) [iso-bornyl acetate], the “log P (octanol/water partition coefficient)” value is on record as 4.3 Log P.

On to `Cc1ncsc1CCO` [sulfurol], for which the “log P (octanol/water partition coefficient)” value is reported as 1.11 Log P. On to `CC(C=O)Cc1ccc(C(C)(C)C)cc1` (stereo not drawn) [lilial], for which the “log P (octanol/water partition coefficient)” value is on record as 4.4 Log P.
